The source of these data is patent publication US20250074892A1, “CARBONYL BRIDGED HETEROCYCLIC COMPOUND, AND COMPOSITION AND APPLICATION THEREOF” (BEIJING SCITECH-MQ PHARMACEUTICALS LIMITED, priority 2022, published 2025).

SMILES strings stand for the structures.

The target of this assay is T1, RIPK1 (Homo sapiens, UniProt Q13546).
T1 construct: intracellular RIPK1 and its phosphorylation during the process of inducing programmed necrosis of HT29 cells; endogenous in cells; host or cells: HT29 cells
T1 sequence (Q13546 1-671): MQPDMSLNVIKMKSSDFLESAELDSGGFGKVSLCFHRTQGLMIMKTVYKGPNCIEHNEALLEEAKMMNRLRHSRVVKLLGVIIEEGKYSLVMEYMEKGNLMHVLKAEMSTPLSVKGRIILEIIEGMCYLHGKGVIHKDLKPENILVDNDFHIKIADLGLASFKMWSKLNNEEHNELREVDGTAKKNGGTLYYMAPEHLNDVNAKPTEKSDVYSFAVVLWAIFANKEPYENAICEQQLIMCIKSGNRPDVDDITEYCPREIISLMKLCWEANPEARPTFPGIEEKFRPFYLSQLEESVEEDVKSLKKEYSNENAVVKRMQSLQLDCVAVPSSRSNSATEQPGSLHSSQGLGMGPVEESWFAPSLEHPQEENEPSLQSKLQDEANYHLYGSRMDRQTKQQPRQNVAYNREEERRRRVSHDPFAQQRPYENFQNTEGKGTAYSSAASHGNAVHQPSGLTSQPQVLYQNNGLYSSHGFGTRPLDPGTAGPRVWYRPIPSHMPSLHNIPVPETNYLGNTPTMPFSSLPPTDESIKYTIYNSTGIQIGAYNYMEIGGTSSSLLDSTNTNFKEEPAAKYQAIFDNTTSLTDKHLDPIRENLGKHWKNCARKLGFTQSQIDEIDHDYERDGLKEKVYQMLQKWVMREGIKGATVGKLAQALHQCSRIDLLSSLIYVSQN
The assay is described as follows: Western Blot detection of inhibition of RIPK1 phosphorylation in HT29 cells. In kind it is cell-based. The following applies: Z-VAD-FMK/TNF-α/AT-406 induction, 7 hours. How it is done: In this assay, Western blot was used to detect the effect of the test compound on intracellular RIPK1 and its phosphorylation during the process of inducing programmed necrosis of HT29 cells to verify the inhibitory effect of the compound on RIPK1 phosphorylation.
a) HT29 cells in good condition were collected, resuspended in McCoy's 5A complete medium and counted. The cells were seeded in a 12-well plate at a cell density of 1×10 6/1 mL/well, and placed in a 37° C. cell culture incubator overnight.
b) Z-VAD-FMK (at final concentration of 20 μM) was added to the above 12-well plate. After 30 minutes, the inducer (where the final concentration of TNF-α was 20 ng/mL, and the final concentration of AT-406 was 100 nM), and the test compound of different concentrations was then added, and incubated in a cell incubator at 37° C. for 7 hours.
c) Preparation of complete lysate: A tube of aliquoted RIPA lysate was thawed, and then phosphatase inhibitor and Roche protease inhibitor were added respectively (phosphatase inhibitor: RIPA=1:100; Roche protease inhibitor: RIPA=4:100); the mixture was placed on ice for later use; […]
g) The BCA kit was used for detection and the protein concentration was calculated; […]
7. […] The membrane was cut according to the molecular weight of the protein to be detected based on the marker band indication. […]
A general note: Immunoblotting shows a protein as a band on a membrane.

For the compound `O=C(C1CCN(c2cc(-c3cc(OCCCO)ccc3F)ccn2)CC1)N1N=CC[C@H]1c1cc(F)cc(F)c1` (racemic) [Example 40], the “effect on RIPK1 total protein” value is reported as “no obvious inhibitory effect on RIPK1”; the “inhibition of RIPK1 phosphorylation (Western Blot, ratio to total RIPK1)” value is “directly inhibits the phosphorylation activity of RIPK1 and shows a dose-dependent relationship”.
